Test results: a compilation of properties of binary mixtures (doi:10.1021/acs.iecr.6b02875)

Experiment: xn = mol fraction of the nth substance listed
Conditions: 101 kPa; for electrical conductivity: 298.15 K

CCCOCCn1cc[n+](C)c1.O=S(=O)([N-]S(=O)(=O)C(F)(F)F)C(F)(F)F + O
x1 = 0.8308
Conditions | viscosity [mPa·s]
293 K | 48
303 K | 31.6
313 K | 21.9
323 K | 15.9
333 K | 12
343 K | 9.2
353 K | 7.3

Conditions | electrical conductivity [S/m]
x1 = 0.8308 | 0.404

CCOCC[n+]1ccn(C)c1.O=S(=O)([N-]S(=O)(=O)C(F)(F)F)C(F)(F)F + O
x1 = 0.8421
Conditions | viscosity [mPa·s]
293 K | 42.4
303 K | 27.8
313 K | 19.5
323 K | 14.2
333 K | 10.7
343 K | 8.3
353 K | 6.5

Conditions | electrical conductivity [S/m]
x1 = 0.8421 | 0.499

CCOCn1cc[n+](C)c1.O=S(=O)([N-]S(=O)(=O)C(F)(F)F)C(F)(F)F + O
x1 = 0.8413
Conditions | viscosity [mPa·s]
283 K | 81.6
293 K | 48.9
298.1 K | 38.8
303 K | 31.4
313 K | 21.6
323 K | 15.7
343 K | 9.1
353 K | 7.2

Conditions | electrical conductivity [S/m]
x1 = 0.8413 | 0.504

COCCCn1cc[n+](C)c1.O=S(=O)([N-]S(=O)(=O)C(F)(F)F)C(F)(F)F + O
x1 = 0.8318
Conditions | viscosity [mPa·s]
293 K | 49.6
298.1 K | 39.7
303 K | 32.1
313 K | 22.1
323 K | 15.9
333 K | 11.8
343 K | 9.1
353 K | 7.1

Conditions | electrical conductivity [S/m]
x1 = 0.8318 | 0.44

COCC[n+]1ccn(C)c1.O=S(=O)([N-]S(=O)(=O)C(F)(F)F)C(F)(F)F + O
x1 = 0.838
Conditions | viscosity [mPa·s]
293 K | 41.5
298.1 K | 33.3
303 K | 27.4
313 K | 19.4
323 K | 14.2
333 K | 10.7
343 K | 8.4
353 K | 6.7

COC[n+]1ccccc1.O=S(=O)([N-]S(=O)(=O)C(F)(F)F)C(F)(F)F + O
x1 = 0.8484
Conditions | viscosity [mPa·s]
283 K | 75.6
293 K | 46.3
313 K | 21.7
323 K | 15.8
343 K | 9.4
353 K | 7.5

COC[n+]1ccn(C)c1.O=S(=O)([N-]S(=O)(=O)C(F)(F)F)C(F)(F)F + O
x1 = 0.8281
Conditions | viscosity [mPa·s]
293 K | 48.3
298.1 K | 38.4
303 K | 31.1
313 K | 21.4
323 K | 15.4
333 K | 11.4
343 K | 8.8
353 K | 7

Conditions | electrical conductivity [S/m]
x1 = 0.8281 | 0.594
